How the values were obtained:
alpha-Gal epitope [1] = assay: inactivation test of alpha-Gal epitopes in samples of cow's milk (M86 antibody incubation, centrifugation, alpha-Gal/HSA ELISA); format: biochemical; details: 0.5% w/v, ambient temperature
Description: incubating samples of milk with the addition of an antibody aimed at the alpha-Gal epitope that is present in the milk; in such embodiment, the antibody is for example a murine monoclonal antibody M86; it should be understood that all mono- or polyclonal antibodies and/or antibodies belonging to different isotypes, which have shown a proven specificity against the antigen in question, can be used; in general, the anti-xenoantigen antibody is an antibody specifically aimed at the alpha-Gal epitope;
separating, by way of centrifugation, the resulting immune complex created owing to the bond between antigen and antibody;
preparing a plate with 96 wells for the E.L.I.S.A. text with coating comprising the xenoantigen epitope, i.e. an alpha-Gal/human serum albumin coating;
adding, in the wells, supernatant taken from the milk samples subjected to centrifuge; the supernatant contains the part of anti-alpha-Gal antibody that has not bonded with epitopes; as is known, a column of wells is adapted to define a reference value, known in the jargon as ‘blank value’, that corresponds to the maximum signal between antibody and epitopes,
completing the plate with a secondary antibody conjugated with an enzyme, or other molecule for qualitative or quantitative evaluation through colorimetric assay, adapted to chromatically highlight the presence if any of the anti-alpha-Gal antibody; in the present embodiment, the secondary antibody is constituted by a rabbit polyclonal anti-mouse antibody, conjugated with the peroxidase enzyme, or with other types, enzymatic or otherwise, capable of providing qualitative or quantitative indications through colorimetric assay;
reading the plate, determining the presence of anti-alpha-Gal antibody that has remained free in the solutions of the samples;
comparing the absorbance values detected in the column that defines the reference values with the values detected in the other columns of samples of the plate.
Two solutions are made up with different concentrations of phenylpropanoid, using the milk as solvent in a total volume of 50 ml. In this specific example, which obviously should be understood to be non-limiting of the invention, an extract of “Lippia Citriodora” was used, titrated at 93% verbascoside. […]
These solutions are left to act under moderate but constant stirring, for a total of […] at 25±5° C.
Samples are taken at 30±2 minutes, 1±0.1 hour and 3±0.1 hours.
An aliquot of milk is taken from each sampling, comprised between 200 ul and 500 ul, and preferably 300 ul, to which a buffer is added, Na3C6H5O7 0.2M at pH 7.0±0.5, until a final volume is reached comprised between 1000 ul and 1500 ul, and preferably a final volume of 1500 ul.
Then a murine antibody, directed against the alpha-Gal epitope, is added (in the present example this is an IgM clone called M86), at the preferable concentration of [1:50] w/v and the whole is incubated for 120±10 minutes at 37±2° C. under constant but moderate stirring.
At the end the samples are subjected to centrifugation at 10,000×g for 30±2 minutes at 4±2° C.
During incubation with the M86 antibody, a plate with 96 wells is prepared with 100 ul per well of alpha-Gal/HSA (Human Serum Albumin) at 5 ug/ml in a PBS buffer (pH 7.0±0.5).
The plate thus prepared is incubated for 60±10 minutes at a temperature comprised between 30° C.-40° C., although it is preferable to stabilize everything at 37° C.±2.0° C.
Then 3 washes are carried out with 300 ul per well of PBS (physiological pH) at ambient temperature.
The first wash is left to act for 5 minutes, the two subsequent washes for 3 minutes each.
The blocking is done with 300 ul per well of 2±0.5% of serum albumin in PBS, followed by covering the plate with protective film and incubation for 60±10 minutes at ambient temperature, in darkness.
Subsequently 3 washes are performed as above. […]

alpha-Gal epitope [2] = assay: inactivation test of alpha-Gal epitopes in samples of milk substitutes based on rice and soya (M86 antibody incubation, centrifugation, alpha-Gal/HSA ELISA); format: biochemical; details: milk substitute based on rice and soya, caffeic acid 0.3% w/v (method: 0.5±0.05% w/v), ambient temperature
Description: Three solutions are made up, using a milk substitute based on rice and soya as solvent, for example a substitute comprising 17% rice, 17% soy seeds, in a total volume of 50 ml. In the present example, which is non-limiting of the invention, extracts of “Lippia citriodora” are used, titrated at 93% verbascoside. […] These solutions are left to act under moderate but constant stirring, for a total of 3±0.1 hours at 25±5° C. Samples are taken at 30±2 minutes, 1±0.1 hour and 3±0.1 hours. An aliquot of milk is taken from each sampling, comprised between 200 and 500 ul, and preferably a dose of 300 ul, to which a buffer is added, Na3C6H5O7 at pH 7.0±0.5, until a final volume is reached comprised between 1000 and 1500 ul, and preferably a final volume of 1500 ul. Then a murine antibody, directed against the alpha-Gal epitope, is added, for example an IgM clone called M86, at the preferable concentration of [1:50] w/v and the whole is incubated for 120±10 minutes at 37±2° C. under constant but moderate stirring. At the end the samples are subjected to centrifugation at 10,000×g for 30±2 minutes at 4±2° C. During incubation with the M86 antibody, a plate with 96 wells is prepared with 100 ul per well of alpha-Gal/HSA (Human Serum Albumin) at 5 ug/ml in a PBS buffer (pH 7.0±0.5). The plate thus prepared is incubated for 60±10 minutes at a temperature comprised between 30° C.-40° C., although it is preferable to stabilize everything at 37±2.0° C. Then 3 washes are carried out with 300 ul per well of PBS (physiological pH) at ambient temperature. The first wash is left to act for 5 minutes, the two subsequent washes for 3 minutes each. […] Then 50 ul per well of the stop solution is added, which is constituted by H2SO4 2M and the plate is then read in a plate reader at the wavelength of 450 nm. The test of inactivation is based on the comparison between the absorbance values of column number 1 which constitutes the blank value (100% of antibody available) and the respective columns of the samples. […]

Row | SMILES | antigens inactivated (alpha-Gal epitope [1]; after 30 minutes) [%] | antigens inactivated (alpha-Gal epitope [1]; after 1 hour) [%] | antigens inactivated (alpha-Gal epitope [1]; after 3 hours of incubation) [%] | antigens inactivated (alpha-Gal epitope [2]; after 30 minutes) [%] | antigens inactivated (alpha-Gal epitope [2]; after 1 hour) [%] | antigens inactivated (alpha-Gal epitope [2]; after 3 hours of incubation) [%]
1 | O=C(O)/C=C/c1ccc(O)c(O)c1 [caffeic acid] | 51.2±4.2 | 61.1±2.6 | 72.3±2.8 | 61.8±2.8 | 78.3±4.1 | 89.2±1.8
2 | O=C(OC[C@H]1O[C@@H](OC(=O)c2cc(O)c(O)c(OC(=O)c3cc(O)c(O)c(O)c3)c2)[C@H](OC(=O)c2cc(O)c(O)c(OC(=O)c3cc(O)c(O)c(O)c3)c2)[C@@H](OC(=O)c2cc(O)c(O)c(OC(=O)c3cc(O)c(O)c(O)c3)c2)[C@@H]1OC(=O)c1cc(O)c(O)c(OC(=O)c2cc(O)c(O)c(O)c2)c1)c1cc(O)c(O)c(OC(=O)c2cc(O)c(O)c(O)c2)c1 [tannic acid] | 67.7±7.1 | 71.8±2.2 | 80.6±1.8 | – | – | –
